The values that follow come from ChEMBL document CHEMBL4270550, “Synthesis of pyrazolo[3,4-d]pyrimidin-4(5H)-ones tethered to 1,2,3-triazoles and their evaluation as potential anticancer agents” (2018).

Test [1] deals with C6. Kind of test: Antiproliferative activity against rat C6 cells at 10 uM after 48 hrs by MTT assay relative to control. The class given is functional. In general terms: Formazan colour is commonly taken as a measure of viable cells.
For test [2], the system named is U-87 MG. Kind of test: Antiproliferative activity against human U87 cells at 10 uM after 48 hrs by MTT assay relative to control. The class given is functional, U-87MG ATCC.
The test system of test [3] is C6. Put plainly: Antiproliferative activity against rat C6 cells after 48 hrs by MTT assay. The class given is functional, cell-based.
Test [4] relates to U-87 MG. Kind of test: Induction of apoptosis in human U87 cells assessed as increase in cleaved PARP levels by Western blot analysis. The class given is functional, cell-based. The note with it: U-87MG ATCC.
In test [5] the test system is U-87 MG. Kind of test: Cell cycle arrest in human U87 cells assessed as accumulation of cells at G2/M phase at 10 uM after 48 hrs by propidium iodide staining-based flow cytometric analysis (reference value: 19.4%). The format is functional, U-87MG ATCC. For orientation: A flow cytometer gives signals particle by particle.
Test [6] relates to U-87 MG. Kind of test: Cell cycle arrest in human U87 cells assessed as accumulation of cells at G2/M phase at 25 uM after 48 hrs by propidium iodide staining-based flow cytometric analysis (reference value: 19.4%). The format is functional, U-87MG ATCC.
Test [7] has as its system U-87 MG. Kind of test: Cell cycle arrest in human U87 cells assessed as accumulation of cells at G0/G1 phase at 50 uM after 48 hrs by propidium iodide staining-based flow cytometric analysis (reference value: 71.7%). The format is functional, U-87MG ATCC.
The subject of test [8] is U-87 MG. Kind of test: Antiproliferative activity against human U87 cells after 48 hrs by MTT assay. The class given is functional, cell-based. The note with it: U-87MG ATCC.
Test [9] relates to U-87 MG. Put plainly: Cell cycle arrest in human U87 cells assessed as accumulation of cells at G2/M phase at 50 uM after 48 hrs by propidium iodide staining-based flow cytometric analysis (reference value: 19.4%). The format is functional, U-87MG ATCC.
Test [10] deals with U-87 MG. Kind of test: Cell cycle arrest in human U87 cells assessed as accumulation of cells at S phase at 50 uM after 48 hrs by propidium iodide staining-based flow cytometric analysis (reference value: 8.95%). The class given is functional, U-87MG ATCC.
The subject of test [11] is U-87 MG. Put plainly: Induction of apoptosis in human U87 cells assessed as increase in p53 levels by Western blot analysis. The class given is functional, cell-based. The conditions noted are these: U-87MG ATCC. In general terms: Immunoblotting shows a protein as a band on a membrane.
Test [12] has as its system U-87 MG. Kind of test: Cell cycle arrest in human U87 cells assessed as accumulation of cells at G0/G1 phase at 10 uM after 48 hrs by propidium iodide staining-based flow cytometric analysis (reference value: 71.7%). The format is functional, U-87MG ATCC.
For test [13], the system named is U-87 MG. Put plainly: Induction of apoptosis in human U87 cells after 48 hrs by propidium iodide staining-based flow cytometric analysis. The format is functional, cell-based. The conditions noted are these: U-87MG ATCC.
The test system of test [14] is U-87 MG. Kind of test: Cell cycle arrest in human U87 cells assessed as accumulation of cells at G0/G1 phase at 25 uM after 48 hrs by propidium iodide staining-based flow cytometric analysis (reference value: 71.7%). The class given is functional, U-87MG ATCC.
For test [15], the system named is U-87 MG. Kind of test: Cell cycle arrest in human U87 cells assessed as accumulation of cells at S phase at 10 uM after 48 hrs by propidium iodide staining-based flow cytometric analysis (reference value: 8.95%). The format is functional, U-87MG ATCC.
The test system of test [16] is U-87 MG. Put plainly: Cell cycle arrest in human U87 cells assessed as accumulation of cells at S phase at 25 uM after 48 hrs by propidium iodide staining-based flow cytometric analysis (reference value: 8.95%). The format is functional, U-87MG ATCC.
Test [17] relates to U-87 MG. Kind of test: Induction of apoptosis in human U87 cells assessed as increase in caspase3 expression by Western blot analysis. The class given is functional, cell-based. The note with it: U-87MG ATCC.

Turning to `O=c1c2cnn(-c3ccccc3)c2ncn1Cc1cn(-c2ccccc2)nn1`, the Activity in test [1] is listed as 34.1%; in [2], 52.34%.
Taken in the same sequence, the figures for `O=c1c2cnn(-c3ccc(Cl)cc3)c2ncn1Cc1cn(-c2cccc(Cl)c2)nn1` were 9.55% and 47.29%.
For the compound `Cc1ccccc1-n1cc(Cn2cnc3c(cnn3-c3ccccc3)c2=O)nn1`, the Activity is 13.64% in test [1] and 21.32% in [2].
As to `O=c1c2cnn(-c3ccccc3)c2ncn1Cc1cn(-c2cccc(Cl)c2)nn1`, the Activity result is “Dose-dependent effect” in test [3]; 17.87% in test [1]; “Dose-dependent effect” in test [4]; 12.52% in [5]; 2.03% in test [6]; 62.6% in test [7]. In addition, the Activity result in test [8] is “Dose-dependent effect”; in test [9], 0.08%; in test [2] it was 47.69%; in test [10], 37.4%; in test [11], “Dose-dependent effect”; in test [12], 73.3%. Further, the Activity entry is “Dose-dependent effect” in [13]; 80.8% in test [14]; 14.18% in test [15]; 17.13% in test [16]; “Dose-dependent effect” in test [17].
Regarding `Cc1cccc(-n2cc(Cn3cnc4c(cnn4-c4ccc(Cl)cc4)c3=O)nn2)c1C`, the results for the Activity in test [1] and in test [2] were 35.91% and 54.42%, respectively.
Compound `O=c1c2cnn(-c3ccc(Cl)cc3)c2ncn1Cc1cn(-c2ccccc2)nn1` showed an Activity in test [2] of 40.98%.
In the case of `Cc1ccc(-n2cc(Cn3cnc4c(cnn4-c4ccccc4)c3=O)nn2)cc1`, the Activity in [1] is on record as 16.87%; in [2], 41.62%.
Turning to `COc1ccccc1-n1cc(Cn2cnc3c(cnn3-c3ccc(Cl)cc3)c2=O)nn1`, the Activity was 16.37% in test [1] and 32.98% in test [2].
The like results for `COc1ccccc1-n1cc(Cn2cnc3c(cnn3-c3ccccc3)c2=O)nn1` were, in that order, 4.91% and 15.7%.
In turn, `O=c1c2cnn(-c3ccccc3)c2ncn1Cc1cn(-c2ccccc2F)nn1` had an Activity in [2] of 46.35%.
Same read-out and setting: the figure for `Cc1cccc(-n2cc(Cn3cnc4c(cnn4-c4ccccc4)c3=O)nn2)c1C` is 40.6%.
The same measure, in the same setting: the figure for `O=c1c2cnn(-c3ccc(Cl)cc3)c2ncn1Cc1cn(-c2ccccc2F)nn1` is 21.31%.
